Data: ChEMBL document CHEMBL1158293, “Isolation and structure of prorocentrolide B, a fast-acting toxin from Prorocentrum maculosum” (J Nat Prod, 1996)

System: Mus musculus
Assay: Toxicity in ip dosed CD1 mouse
Type: organism-based
Conditions: in vivo

C=C1CCC2OC(CC3=CC4/C(C)=C/CC(C)CC(/C=C/C(O)C5CC(O)C(O)C(CCC(O)/C=C/C(C)=C/CCC6=NCCC(C3)C64C)O5)OC(=O)CC3OC(C(O)CC1C)C(O)C3OS(=O)(=O)O)C(O)CC2O (stereo unspecified) [PROROCENTROLIDE B]
Activity: Toxic
